The values below come from ChEMBL document CHEMBL1201862, “PubChem BioAssay data set” (2004).

Common to all, as to assay: inhibition of tumour cell growth, NCI panel, 48 h
Assay [1] concerns SF-539.
The test system of assay [2] is HL-60.
For assay [3], the system named is EKVX.
For assay [4], the system named is BT-549.
Assay [5] deals with HCC 2998.
Assay [6] concerns SN12C.
Assay [7] deals with SK-MEL-5.
Assay [8] relates to OVCAR-8.
Assay [9] concerns A549.
In assay [10] the test system is HT-29.
For assay [11], the system named is HOP-62.
The test system of assay [12] is SK-OV-3.
Assay [13] deals with ACHN.
Assay [14] has as its system SNB-75.
Assay [15] has as its system SF-295.
In assay [16] the test system is HCT-116.
For assay [17], the system named is SK-MEL-2.
Assay [18] relates to UACC-62.
Assay [19] deals with K562.
Assay [20] relates to MCF7.

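Five concentrations, 48 hours, 96-well plates. GI50 marks 50% less growth.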 Calls of active or inactive are those of the source. Rule as the data show it: active = GI50 up to about 1.1 µM and inactive = higher.

Regarding `CC(=O)/C(=C/NC(=S)N/N=C1\C(=O)Nc2ccccc21)C(=O)Nc1ccccc1C`, the GI50 in assay [1] is > 100 µM (inactive); in [2], 41 µM (inactive); in assay [3] it was 70.6 µM (inactive); in [4], > 100 µM (inactive); in assay [5] it was > 100 µM (inactive); in [6], > 100 µM (inactive). For the same compound, the GI50 in assay [7] is 65.3 µM (inactive); in [8] it was > 100 µM (inactive); in assay [9] it was > 100 µM (inactive); in assay [10] it was > 100 µM (inactive); in assay [11], > 100 µM (inactive); in [12], > 100 µM (inactive). In addition, the GI50 in assay [13] was 96.2 µM (inactive); in assay [14], 52.4 µM (inactive); in assay [15] it was > 100 µM (inactive); in assay [16] it was 95.3 µM (inactive); in assay [17] it was > 100 µM (inactive); in assay [18], > 100 µM (inactive).
Turning to `c1cnc2c(c1)Nc1cnncc1S2`, the GI50 in assay [1], in assay [19], in assay [20], in assay [2], in [3] and in assay [5] was > 100 µM (inactive) in each case. The GI50 in assay [6], in [7], in assay [8], in [9], in [10] and in [11] was > 100 µM (inactive) each time. For the same compound, the GI50 in [12] is > 100 µM (inactive); in [13] it was > 100 µM (inactive); in assay [14] it was 12.2 µM (inactive); in assay [15] it was > 100 µM (inactive); in [16], > 100 µM (inactive); in assay [17], > 100 µM (inactive). In assay [18], the GI50 was 77.6 µM (inactive).
In the case of `COC1C(O)CC(OC2CC(OC3CC(O[C@@H]4C(=O)c5c(cc6cc(OC7CC(OC8CC(O)C(O)C(C)O8)C(O)C(C)O7)c(C)c(O)c6c5O)C[C@H]4[C@H](OC)C(=O)[C@@H](O)[C@@H](C)O)OC(C)C3O)OC(C)C2O)OC1C` (some centres not stated), the GI50 in [1] is < 0.0119 µM (active); in [3], 0.034 µM (active); in assay [4], < 0.01 µM (active); in assay [5] it was 0.0136 µM (active); in [6] it was < 0.0197 µM (active); in assay [7] it was < 0.0138 µM (active). Moreover, the GI50 is < 0.0193 µM (active) in assay [8]; < 0.0151 µM (active) in assay [9]; < 0.0168 µM (active) in assay [10]; < 0.012 µM (active) in assay [11]; < 0.0236 µM (active) in assay [12]; < 0.0191 µM (active) in [13]. The GI50 in assay [14] is < 0.0331 µM (active); in assay [15], < 0.0173 µM (active); in assay [16], < 0.01 µM (active); in [17] it was < 0.0129 µM (active); in assay [18] it was < 0.0131 µM (active).
As to `COC(=O)CCCc1c(-c2[nH]c3ccccc3c2CCCC(=O)OC)[nH]c2ccccc12`, the GI50 in assay [1], in assay [19], in assay [2], in [3], in [4] and in assay [6] was > 100 µM (inactive) each time. Besides, the GI50 in assay [7], in [8], in assay [9], in assay [10], in [11] and in [12] was > 100 µM (inactive) each time. Also, the GI50 in [13] was > 100 µM (inactive); in assay [14], 13.6 µM (inactive); in [15], > 100 µM (inactive); in assay [16], > 100 µM (inactive); in [17] it was > 100 µM (inactive); in [18], > 100 µM (inactive).
